“And” between values parts separate entries of the source, which are not always exact repeats. Equal entries are not always repeated. Where two headings read alike, the source gives them in different places. Marks after values point to notes of the source that are not given here.
Assays:
[1] = tested on: Sprague-Dawley rat hepatocytes; conditions: cited from earlier work
[2] = tested on: rat renal proximal tubules; conditions: rat renal proximal tubules with hepatic subcellular fractions; cited from earlier work
[3] = tested on: isolated renal cortical cells (IRCC); assay: LDH release from isolated renal cortical cells; conditions: for direct nephrotoxic potential of the aminophenols in decreasing order / Cytotoxicity (LDH release) in words / LDH (% Release) 4-A2CP: IRCC; for direct nephrotoxic potential of the aminophenols in decreasing order: 0.5 and 1.0 mM; for direct nephrotoxic potential of the aminophenols in decreasing order / LDH (% Release) 4-A2CP / LDH (% Release) Pretreatment: 1 h; for Cytotoxicity (LDH release) in words: aminophenol 0.5 mM, 1 h (Fig. 2); for LDH (% Release) 4-A2CP: % of total LDH; for LDH (% Release) 4-A2CP / LDH (% Release) Pretreatment: mean ± S.E.; for Effect of pretreatment on 4-A2CP cytotoxicity: pretreatment concentration and time per Table 1; for LDH (% Release) Pretreatment: pretreatment compound alone, plus 4-A2CP vehicle
[4] = tested on: LLC-PK1 cells; conditions: cited from earlier work
[5] = tested on: isolated renal cortical cells (IRCC)
[6] = tested on: Fischer 344 rat renal cortical slices; conditions: cited from earlier work
[7] = tested on: peroxidase; conditions: cited from earlier work

**Q.** Which “Effect on 4-AP metabolism” value [1] does the source give for Nn1nnc2ccccc21 [1-aminobenzotriazole] here?
**A.** did not alter

**Q.** What about the “Effect on 4-AP nephrotoxicity” value [2] of the same compound?
**A.** did not alter

**Q.** For Nc1cc(Cl)c(O)c(Cl)c1 [4-A2,6DCP, 4-amino-2,6-dichlorophenol], which “direct nephrotoxic potential of the aminophenols in decreasing order” value [3] is on record?
**A.** 4-A2,6DCP > 4-A2CP > 4-AP > 4-A3CP

**Q.** What about the “Cytotoxicity (LDH release) in words” value [3] of the same compound?
**A.** marked cytotoxicity was observed

**Q.** What does the source list for Nc1ccc(O)c(Cl)c1 [4-A2CP, 4-amino-2-chlorophenol]?
**A.** LDH (% Release) 4-A2CP ([3]; 4-A2CP 0.5 mM alone): 33.0 ± 2.7 ^b % and 52.0 ± 2.5 ^b % and 39.5 ± 0.6 ^b % and 43.0 ± 1.4 ^b % and 38.3 ± 4.9 ^b % and 43.5 ± 3.2 ^b %; LDH (% Release) 4-A2CP ([3]; 4-A2CP 1.0 mM alone): 42.6 ± 0.6 ^b % and 54.4 ± 2.3 ^b % and 51.3 ± 3.2 ^b % and 51.4 ± 4.9 ^b % and 53.9 ± 6.5 ^b % and 49.9 ± 4.3 ^b %; direct nephrotoxic potential of the aminophenols in decreasing order [3]: 4-A2,6DCP > 4-A2CP > 4-AP > 4-A3CP; Cytotoxicity (LDH release) in words [3]: marked cytotoxicity was observed

**Q.** Which “direct nephrotoxic potential of the aminophenols in decreasing order” value [3] does the source give for Nc1ccc(O)cc1Cl [4-A3CP, 4-amino-3-chlorophenol] here?
**A.** 4-A2,6DCP > 4-A2CP > 4-AP > 4-A3CP

**Q.** And the “Cytotoxicity (LDH release) in words” value [3]?
**A.** Cytotoxicity was not observed

**Q.** With O=C1O[C@H]([C@@H](O)CO)C(O)=C1O [Ascorbate] as the compound, how does the “Effect of pretreatment on 4-A2CP cytotoxicity” value (shortened to “Effect of pretreatment”) ([3]; 4-A2CP 0.5 and 1.0 mM) read?
**A.** attenuated

**Q.** With Cc1cc(C(C)(C)C)c(O)c(C(C)(C)C)c1 [BHT, butylated hydroxytoluene] as the compound, how does the “Effect on 4-AP cytotoxicity” value [4] read?
**A.** did not prevent

**Q.** Which “Effect of pretreatment” value [5] does the source give for c1ccc(Nc2ccc(Nc3ccccc3)cc2)cc1 [DPPD, N,N’-diphenyl-p-phenylenediamine] here?
**A.** did not reduce

**Q.** And the “Effect on 4-A2,6-DCP cytotoxicity” value [6]?
**A.** unable to attenuate

**Q.** With N[C@@H](CCC(=O)N[C@@H](CS)C(=O)NCC(=O)O)C(=O)O [Glutathione] as the compound, how does the “Effect of pretreatment” value ([3]; 4-A2CP 1.0 mM) read?
**A.** completely attenuated

**Q.** With NNC(=O)c1ccncc1 [Isoniazid] as the compound, how does the “Effect of pretreatment” value ([3]; 4-A2CP 0.5 and 1.0 mM) read?
**A.** No alteration

**Q.** What about the “LDH (% Release) Pretreatment” value ([3]; 1.0 mM) of the same compound?
**A.** 18.6 ± 0.7% and 20.7 ± 0.9%

**Q.** Which “LDH (% Release) Pretreatment” value ([3]; 0.1 mM) does the source give for CC(=O)N1CCN(c2ccc(OCC3COC(Cn4ccnc4)(c4ccc(Cl)cc4Cl)O3)cc2)CC1 (stereo not shown) [Ketoconazole] here?
**A.** 22.4 ± 0.9% and 26.1 ± 1.7%

**Q.** For O=C(O)CC(S)C(=O)O (stereo not shown) [Mercaptosuccinate, mercaptosuccinic acid], which “Effect of pretreatment” value [5] is on record?
**A.** attenuated

**Q.** For Cn1cc[nH]c1=S [Methimazole], which “LDH (% Release) Pretreatment” value ([3]; 1.0 mM) is on record?
**A.** 22.0 ± 0.5% and 19.7 ± 2.2%

**Q.** Which peroxidase inhibitor properties [7] does the source give for CC(C)(C(=O)c1cccnc1)c1cccnc1 [Metyrapone] here?
**A.** but not metyrapone

**Q.** And the “Effect of pretreatment” value ([3]; 4-A2CP 0.5 mM)?
**A.** potentiated

**Q.** And the “Effect of pretreatment” value ([3]; 4-A2CP 1.0 mM)?
**A.** no potentiation or attenuation

**Q.** And the “LDH (% Release) Pretreatment” value ([3]; 1.0 mM)?
**A.** 21.3 ± 0.6% and 20.6 ± 0.9%

**Q.** With CC(=O)N[C@@H](CS)C(=O)O [N-Acetyl-L-cysteine] as the compound, how does the “Effect of pretreatment” value ([3]; 4-A2CP 1.0 mM) read?
**A.** partially attenuated

**Q.** With CCCCCCCCN [N-Octylamine] as the compound, how does the “Effect of pretreatment” value ([3]; 4-A2CP 0.5 and 1.0 mM) read?
**A.** No alteration

**Q.** And the “LDH (% Release) Pretreatment” value ([3]; 0.2 mM)?
**A.** 27.5 ± 1.1% and 20.0 ± 0.9%

**Q.** With CCCCOCCOCCOCc1cc2c(cc1CCC)OCO2 [Piperonyl butoxide] as the compound, how does the peroxidase inhibitor properties [7] read?
**A.** has peroxidase inhibitor properties

**Q.** What about the “Effect of pretreatment” value ([3]; 4-A2CP 0.5 and 1.0 mM) of the same compound?
**A.** attenuated

**Q.** And the “LDH (% Release) Pretreatment” value ([3]; 1.0 mM)?
**A.** 19.1 ± 2.5% and 25.0 ± 1.0%

**Q.** For Cc1c(C)c2c(c(C)c1O)CC[C@@](C)(CCC[C@H](C)CCC[C@H](C)CCCC(C)C)O2 [α-Tocopherol], which “Effect on 4-A2,6-DCP cytotoxicity” value [6] is on record?
**A.** unable to attenuate

From PMC4402242 (Chemico-biological interactions, 2014)
